Tests used:
[1] = target: T1, wt human LRRK2, catalytic site (Homo sapiens, UniProt Q5S007); assay: TR-FRET LanthaScreen Eu Kinase Binding Assay, LRRK2 wt (Example 72); conditions: Example 72 text; one statement for LRRK2 (Wt) and LRRK2 (G2019); read-out: IC50, Inhibitory Activity Toward LRRK2 (Wt)
T1 construct: wt human LRRK2, catalytic site; purchased ThermoFisher/USA
Method: (§1) The compounds in Tables 5-6 were tested for their inhibitory effect on a set of kinases according to the following procedures.
(§2) The basic protocol for TR-FRET LanthaScreen Eu Kinase Binding Assay inhibitor studies were performed as follows. LanthaScreen Kinase Binding Assays (ThermoFisher/USA) to evaluate inhibitors were performed by addition of 5 μl of test compound in corresponding DMSO dilutions/5 μl of kinase/antibody mixture, 5 μl of tracer into 384 well small volume plates. After incubation for 1 hour at room temperature, plates were read. Data analysis of emission ratios was according to LanthaScreen Eu Kinase Binding Assay protocol.
(§3) Kinase and assay components were adjusted to final concentrations according to the kit protocol. For LRRK2: 5 nM wt human LRRK2, catalytic site, or G2019S human LRRK2, catalytic site (ThermoFisher/USA), 2 nM Eu-Anti-GST Antibody, 10 nM Kinase Tracer 236 in 1× Kinase Buffer A. For NUAK1: 8 nM wt human NUAK1, full length (ThermoFisher/USA), 2 nM Eu-Anti-His Antibody, 5 nM Kinase Tracer 236 in 1× Kinase Buffer A.

[2] = target: T2, G2019S human LRRK2, catalytic site (Homo sapiens, UniProt Q5S007, G2019S); assay: TR-FRET LanthaScreen Eu Kinase Binding Assay, LRRK2 G2019S (Example 72); conditions: Example 72 text; one statement for LRRK2 (Wt) and LRRK2 (G2019); read-out: IC50, Inhibitory Activity Toward LRRK2 (G2019)
T2 construct: G2019S human LRRK2, catalytic site; purchased ThermoFisher/USA
Method: as §1, §2, §3

[3] = target: T3, wt human NUAK1, full length (Homo sapiens, UniProt O60285); assay: TR-FRET LanthaScreen Eu Kinase Binding Assay, NUAK1 (Example 72); conditions: Example 72 text; read-out: IC50, Inhibitory Activity Toward NUAK1
T3 construct: 8 nM wt human NUAK1, full length (ThermoFisher/USA); purchased ThermoFisher/USA
T3 sequence (O60285 1-661): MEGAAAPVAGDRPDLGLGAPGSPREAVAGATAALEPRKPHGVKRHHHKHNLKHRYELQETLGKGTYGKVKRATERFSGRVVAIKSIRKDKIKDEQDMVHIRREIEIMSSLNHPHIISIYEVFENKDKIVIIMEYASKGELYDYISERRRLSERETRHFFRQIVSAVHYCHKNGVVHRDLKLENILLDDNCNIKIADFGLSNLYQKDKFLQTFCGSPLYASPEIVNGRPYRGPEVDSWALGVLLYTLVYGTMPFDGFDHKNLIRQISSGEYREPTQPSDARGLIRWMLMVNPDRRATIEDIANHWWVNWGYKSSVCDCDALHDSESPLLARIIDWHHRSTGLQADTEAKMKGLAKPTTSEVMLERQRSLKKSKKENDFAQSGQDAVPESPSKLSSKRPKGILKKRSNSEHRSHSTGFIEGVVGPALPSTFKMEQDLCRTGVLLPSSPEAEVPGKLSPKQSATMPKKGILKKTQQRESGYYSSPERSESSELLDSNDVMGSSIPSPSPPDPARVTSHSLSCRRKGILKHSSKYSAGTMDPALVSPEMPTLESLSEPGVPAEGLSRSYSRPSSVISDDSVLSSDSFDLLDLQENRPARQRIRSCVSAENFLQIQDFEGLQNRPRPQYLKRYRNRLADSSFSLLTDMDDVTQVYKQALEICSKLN
Method: as §1, §2, §3

[4] = target: T4, wt human TYK2, catalytic site (Homo sapiens, UniProt P29597); assay: HTRF KinEASE assay, TYK2 (Example 72); format: biochemical; conditions: Example 72 text; read-out: IC50, Inhibitory Activity Toward TYK2
T4 construct: wt human TYK2, catalytic site; purchased SignalChem/CAN
T4 sequence (P29597 897-1176 limits assumed): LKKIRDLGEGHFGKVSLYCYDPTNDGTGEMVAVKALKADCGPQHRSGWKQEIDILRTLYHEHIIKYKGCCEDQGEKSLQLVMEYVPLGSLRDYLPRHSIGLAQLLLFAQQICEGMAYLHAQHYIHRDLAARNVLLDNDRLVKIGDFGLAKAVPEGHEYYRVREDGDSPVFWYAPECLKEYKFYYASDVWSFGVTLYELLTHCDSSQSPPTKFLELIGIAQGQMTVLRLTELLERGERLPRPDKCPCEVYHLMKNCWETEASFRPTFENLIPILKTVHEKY
Method: as §1
Basic protocol for HTRF KinEASE assay (Cisbio/FRA) inhibitor studies involved two steps:
Enzymatic step: Addition of 4 μl of test compound in corresponding DMSO dilutions, 4 μl of kinase/substrate mixture, 2 μl of ATP into 384 well small volume plates. Incubation for at least 30 minutes at room temperature.
Detection step: Addition of 5 μl antibody and 5 μl streptavidin-XL665, read plate after 60 minutes. Data analysis of emission ratios according to KinEASE assay protocol.
Kinase and assay components were adjusted to final concentrations according to the kit protocol. For TYK2: 2 nM wt human TYK2, catalytic site (SignalChem/CAN), 1 μM HTRF KinEASE-TK Substrate-biotin, 1 μM ATP in 1× Kinase Buffer

T1 sequence (Q5S007 1879-2138 limits assumed): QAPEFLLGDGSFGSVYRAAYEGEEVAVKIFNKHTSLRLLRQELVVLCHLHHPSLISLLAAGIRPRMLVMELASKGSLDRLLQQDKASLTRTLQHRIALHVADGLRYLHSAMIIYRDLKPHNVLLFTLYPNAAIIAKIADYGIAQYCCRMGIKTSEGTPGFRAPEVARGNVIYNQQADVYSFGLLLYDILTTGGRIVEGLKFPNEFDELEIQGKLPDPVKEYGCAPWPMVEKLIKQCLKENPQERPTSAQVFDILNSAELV
T2 sequence (Q5S007 1879-2138 G2019S limits assumed): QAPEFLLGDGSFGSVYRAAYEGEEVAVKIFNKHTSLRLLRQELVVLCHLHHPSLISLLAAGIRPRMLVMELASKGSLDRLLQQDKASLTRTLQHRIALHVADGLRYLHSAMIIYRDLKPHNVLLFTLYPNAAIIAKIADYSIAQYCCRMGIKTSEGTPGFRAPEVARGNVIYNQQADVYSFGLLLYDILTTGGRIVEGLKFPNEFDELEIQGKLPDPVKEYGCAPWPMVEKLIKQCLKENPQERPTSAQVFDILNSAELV

Compound | IC50 [1] [nM] | IC50 [2] [nM] | IC50 [3] [nM] | IC50 [4] [nM]
Fc1cccc(F)c1C1=Nc2c[nH]nc2-c2cccc3ncn1c23 [Compound 301, 3-(2,6-difluorophenyl)-7H-1,2a,4,6,7-pentaazabenzo[cd]cyclopenta[f]azulene] | < 10 | < 10 | 10 to 100 | –
Cc1cn2c3c(cccc13)-c1n[nH]cc1N=C2c1c(F)cccc1F [Compound 313, 10-(2,6-difluorophenyl)-7-methyl-3H-pyrazolo[4′,3′:4,5][1,3]diazepino[6,7,1-hi]indole] | < 10 | < 10 | 10 to 100 | –
Fc1cccc(F)c1C1=Nc2cn[nH]c2-c2cncc3ncn1c23 [Compound 303, 3-(2,6-difluorophenyl)-7H-1,2a,4,6,7,9-hexaazabenzo[cd]cyclopenta[f]azulene] | 100 to 1000 | 100 to 1000 | 10 to 100 | 100 to 1000
Clc1cccc(Cl)c1C1=Nc2c[nH]nc2-c2cccc3cnn1c23 [Compound 309, 4-(2,6-dichlorophenyl)-8H-pyrazolo[4′,3′:4,5][1,3]diazepino[6,7,1-hi]indazole] | < 10 | < 10 | – | –
Fc1cccc(Cl)c1C1=Nc2cn[nH]c2-c2cccc3cnn1c23 [Compound 306, 4-(2-chloro-6-fluorophenyl)-8H-pyrazolo[4′,3′:4,5][1,3]diazepino[6,7,1-hi]indazole] | 10 to 100 | 10 to 100 | 10 to 100 | –
Fc1ccc(F)c(C2=Nc3c[nH]nc3-c3cccc4cnn2c34)c1 [Compound 315, 4-(2,5-difluorophenyl)-8H-pyrazolo[4′,3′:4,5][1,3]diazepino[6,7,1-hi]indazole] | < 10 | < 10 | 10 to 100 | –
Fc1ccccc1C1=Nc2c[nH]nc2-c2cccc3cnn1c23 [Compound 316, 4-(2-fluorophenyl)-8H-pyrazolo[4′,3′:4,5][1,3]diazepino[6,7,1-hi]indazole] | 10 to 100 | 10 to 100 | – | –
Fc1cccc(F)c1C1=Nc2cn[nH]c2-c2ccc(F)c3cnn1c23 [Compound 317, 4-(2,6-difluorophenyl)-11-fluoro-8H-pyrazolo[4′,3′:4,5][1,3]diazepino[6,7,1-hi]indazole] | < 10 | < 10 | 10 to 100 | –
Fc1cccc(F)c1C1=Nc2cn[nH]c2-c2cccc3nnn1c23 [Compound 304, 3-(2,6-difluorophenyl)-7H-1,2,2a,4,6,7-hexaazabenzo[cd]cyclopenta[f]azulene] | 10 to 100 | 10 to 100 | 10 to 100 | –
Fc1cc2c3c(cnn3C(c3c(F)cccc3F)=Nc3c[nH]nc3-2)c1 [Compound 314, 4-(2,6-difluorophenyl)-10-fluoro-7H-pyrazolo[4′,3′:4,5][1,3]diazepino[6,7,1-hi]indazole] | 100 to 1000 | 100 to 1000 | – | 100 to 1000
Fc1cccc(F)c1C1=Nc2c[nH]nc2-c2cccc3cnn1c23 [Compound 302, 4-(2,6-difluorophenyl)-8H-pyrazolo[4′,3′:4,5][1,3]diazepino[6,7,1-hi]indazole] | < 10 | < 10 | – | –
Fc1cccc(F)c1C1=Nc2cn[nH]c2-c2cnn3c2N1CCC3 [Compound 308, 9-(2,6-difluorophenyl)-3,6,7,8-tetrahydro-2,3,5,5a,8a,10-hexaazabenzo[cd]cyclopenta[h]azulene] | < 10 | < 10 | 10 to 100 | –
Fc1cccc(F)c1C1=Nc2cn[nH]c2-c2nnc3cccn1c2-3 [Compound 307, 9-(2,6-difluorophenyl)-3H-2,3,4,5,8a,10-hexaazabenzo[cd]cyclopenta[h]azulene] | 10 to 100 | 10 to 100 | 10 to 100 | –
CC(=O)n1cc2c3c(cccc31)-c1n[nH]cc1N=C2c1c(F)cccc1F [Compound 311, 1-(3-(2,6-difluorophenyl)pyrazolo[3′,4′:6,7]azepino[3,4,5-cd]indol-1(7H)-yl)ethan-1-one] | 10 to 100 | 10 to 100 | – | –

Reference: patent US20240067655A1 (NEURON23, INC., priority 2020, published 2024)
